Tests used:
[1] = Cell survival (MTT) assay, MEFs (TDP1+/+ and TDP1-/-); format: cell-based, mouse; conditions: mouse, read-out: IC50 cytotoxicity
Description: (§1) Compound 8 was investigated for its cytotoxicity in the cancer cell lines from different tissue origin,[6],[41] as well as in the noncancerous human embryonic kidney cell lines (HEK293) and mouse embryonic fibroblasts (MEFs). […] The MCF7 breast cancer cell lines were most susceptible to compound 8.
(§2) Human cancerous cell lines like MCF7, HeLa, HCT116, NIH:OVCAR-3, and HEK293 were obtained from the Developmental Therapeutics Program as kind gift from Dr. Yves Pommier (NIH/NCI/USA). TDP1^+/+ and TDP1^–/– primary MEF cells were kind gift from Dr. Cornelius F. Boerkoel (University of British Columbia, Canada) and were cultured as described previously.[6],[36],[40],[42] Plasmid DNAs were transfected with Lipofectamine 2000 (Invitrogen) according to the manufacturer’s protocol.
(§3) Cell survival was assessed by 3-(4,5-dimethylthiazol-2-yl)-2,5-diphenyltetrazolium bromide (MTT) assay as discussed previously.[6] The percent inhibition of viability for each concentration of the compounds was calculated with respect to the control, and IC50 values were estimated.

[2] = tested on: mouse embryonic fibroblasts (MEFs); test: as above; format: cell-based
Description: as §1, §2, §3

[3] = target: T1, EGFP-human Top1 in MCF7 cells (Homo sapiens, UniProt P11387); test: FRAP of EGFP-Top1 in live MCF7 cells; format: cell-based; conditions: CPT 5 μM 10 min, then compound 20 μM 10 min
T1 construct: expressed in transfected cells; host or cells: MCF7 cells, transient transfection (Lipofectamine 2000)
T1 sequence (P11387 1-765): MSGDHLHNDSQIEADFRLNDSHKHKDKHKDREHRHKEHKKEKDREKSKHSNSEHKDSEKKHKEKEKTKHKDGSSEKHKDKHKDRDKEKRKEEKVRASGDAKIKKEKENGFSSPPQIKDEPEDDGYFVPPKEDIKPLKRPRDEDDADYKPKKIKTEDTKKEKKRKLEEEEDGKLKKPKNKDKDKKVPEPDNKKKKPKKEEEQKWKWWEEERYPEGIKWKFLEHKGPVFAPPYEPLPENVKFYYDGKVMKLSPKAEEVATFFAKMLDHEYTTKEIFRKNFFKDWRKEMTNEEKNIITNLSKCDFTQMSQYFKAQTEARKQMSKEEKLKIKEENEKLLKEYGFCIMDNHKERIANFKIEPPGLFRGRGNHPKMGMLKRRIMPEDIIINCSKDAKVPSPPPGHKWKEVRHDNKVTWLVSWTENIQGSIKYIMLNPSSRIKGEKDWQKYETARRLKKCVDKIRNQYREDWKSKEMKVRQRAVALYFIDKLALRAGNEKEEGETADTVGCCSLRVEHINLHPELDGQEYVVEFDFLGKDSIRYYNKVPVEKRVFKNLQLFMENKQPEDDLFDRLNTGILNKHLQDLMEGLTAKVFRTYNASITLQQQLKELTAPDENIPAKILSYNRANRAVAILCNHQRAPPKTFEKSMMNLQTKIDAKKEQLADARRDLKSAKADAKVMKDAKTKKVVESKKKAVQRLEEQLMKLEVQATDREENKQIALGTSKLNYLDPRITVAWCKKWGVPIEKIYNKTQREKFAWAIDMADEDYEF
Description: To obtain direct evidence for compound 8 mediated inhibition of Top1cc formation in live human carcinoma cells, we used MCF7 cells and transiently expressed EGFP-Top1. Live cells expressing ectopic Top1 were analyzed under laser confocal microscopy equipped with fluorescence recovery after photobleaching (FRAP) technology.[40]−[42]
Photobleaching experiments were performed as described formerly[40]−[42] using Andor Spining disk inverted confocal laser-scanning microscope equipped with a 60×/1.42 NA oil-immersion objective (Olympus) and with a CO2-controlled on-stage heated environmental chamber set to 37 °C. FRAP analyses were carried out with living MCF7 cells ectopically expressing EGFP-human Top1 grown on chamber cover glass (Genetix, India) and drug treated as indicated. For FRAP analysis, a subnuclear spot was bleached for 30 ms by solid-state laser line (488 nm for EGFP) adapted to the fluorescent protein of interest and FRAP curves were generated individually normalized to the prebleach signal as described previously.[42]

[4] = tested on: PARP1 cleavage in MCF7 cells; test: Western blot of PARP1 cleavage in treated MCF7 cells; format: cell-based, human; conditions: 10 μM, 12 h
Description: Preparation of whole cell extracts from MCF7 cells and immunoblotting were carried out as described.[6],[40],[41] Immunoreactivity was detected using ECL chemiluminescence reaction (Amersham) under ChemiDoc MP system (Bio-Rad, USA).

[5] = tested on: MCF7 cells transfected with Top1 or Ctr siRNA; test: Cell survival (MTT) assay in MCF7 cells transfected with Top1 or control siRNA; format: cell-based, human
Description: To further confirm that Top1 is the cellular target for compound 8 mediated cytotoxicity, we have performed cytotoxicity assays in siRNA mediated Top1 knockdown cells (Figure 6G, inset).
as §3
Transfections were performed as described previously.[40] In brief, cells (1.5 × 10^5) were transfected with control siRNA or 40 nM Top1 siRNA (Qiagen) using oligofectamine (Invitrogen) according to the manufacturer’s protocol.

[6] = Cell survival (MTT) assay, HEK293; format: cell-based; conditions: human, HEK293 cells (noncancerous embryonic kidney), read-out: IC50 cytotoxicity
Description: as §1, §3

## CN(C)c1ccc(-c2c3nc(c(-c4ccc(N(C)C)cc4)c4ccc([nH]4)c(-c4ccc(C(=O)O)cc4)c4nc(c(-c5ccc(C(=O)O)cc5)c5ccc2[nH]5)C=C4)C=C3)cc1 [Compound 8, 5,10-Bis(4-carboxyphenyl)-15,20-bis(4-dimethylaminophenyl)porphyrin]
[1]; TDP1+/+ primary mouse embryonic fibroblasts (MEFs), TDP1+/+ MEFs
  IC50: > 10 µM
[1]; TDP1-/- primary mouse embryonic fibroblasts (MEFs), TDP1-/- MEFs
  IC50: > 10 µM
[1]; mouse embryonic fibroblasts (MEFs), MEFs, noncancerous
  IC50: > 10 µM
[2]
  Sensitivity of TDP–/– versus TDP1+/+ MEFs cells: equally sensitive
[3]
  Top1 mobility restored in cells pretreated with CPT (FRAP): 12–15%
[4]
  PARP cleavage: promotes PARP cleavage
[5]
  Cytotoxicity in Top1 knockdown cells compared to Top1 proficient cells: reduced cytotoxicity
[6]
  IC50: > 10 µM

Reference: paper PMC5808360, “Neutral Porphyrin Derivative Exerts Anticancer Activity by Targeting Cellular Topoisomerase I (Top1) and Promotes Apoptotic Cell Death without Stabilizing Top1-DNA Cleavage Complexes” (Journal of Medicinal Chemistry, 2017)
